PubChem BioAssay (NCI)
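At the GI50, growth is halved. Definition used: TGI = concentration required for complete inhibition of growth.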

Key:
Experiment in all cases: growth of human tumour cells (NCI), 384-well format
[1] = system: U251 glioblastoma
[2] = system: UO-31 renal
[3] = system: HOP-62 NSCLC
[4] = system: BT-549 breast
[5] = system: HOP-92 NSCLC
[6] = system: OVCAR-3 ovarian
[7] = system: SK-OV-3 ovarian
[8] = system: CCRF-CEM leukemia
[9] = system: CAKI-1 renal
[10] = system: SNB-75 CNS
[11] = system: TK-10 renal
[12] = system: EKVX NSCLC
[13] = system: ACHN renal
[14] = system: MALME-3M melanoma
[15] = system: HS 578T breast
[16] = system: COLO 205 colon
[17] = system: MCF7 breast
[18] = system: M14 melanoma
[19] = system: UACC-62 melanoma
[20] = system: HL-60(TB) leukemia
[21] = system: OVCAR-4 ovarian
[22] = system: NCI-H322M lung
[23] = system: A498 renal
[24] = system: NCI/ADR-RES ovarian
[25] = system: SF-295 CNS
[26] = system: K-562 leukemia
[27] = system: OVCAR-5 ovarian
[28] = system: SK-MEL-5 melanoma
[29] = system: RPMI-8226 leukemia
[30] = system: A549 NSCLC
[31] = system: SNB-19 CNS
[32] = system: SK-MEL-28 melanoma
[33] = system: T-47D breast
[34] = system: PC-3 prostate
[35] = system: LOX IMVI melanoma
[36] = system: MDA-MB-231 breast
[37] = system: NCI-H460 NSCLC
[38] = system: NCI-H23 lung
[39] = system: IGROV1 ovarian
[40] = system: NCI-H226 lung
[41] = system: SR leukemia
[42] = system: 786-0 renal
[43] = system: MOLT-4 leukemia
[44] = system: OVCAR-8 ovarian
[45] = system: UACC-257 melanoma
[46] = system: NCI-H522 lung
[47] = system: SF-539 CNS

Compound `CC(=O)N1CCC(Nc2cc(C(=O)NC[C@H](O)CN3CCc4ccccc4C3)ncn2)CC1` has a GI50 [1] greater than 100 µM, a TGI [1] greater than 100 µM and a GI50 [2] greater than 100 µM. For the same compound, the TGI [2] was greater than 100 µM, the GI50 [3] was greater than 100 µM and the TGI [3] was greater than 100 µM. For the same compound, the GI50 [4] was greater than 100 µM, the TGI [4] was greater than 100 µM and the GI50 [5] was greater than 28.1 µM. It also gave a TGI [5] greater than 100 µM, a GI50 [6] greater than 100 µM and a TGI [6] greater than 100 µM. For the same compound, the GI50 [7] was greater than 100 µM, the TGI [7] was greater than 100 µM and the GI50 [8] was greater than 100 µM. For the same compound, the TGI [8] was greater than 100 µM, the GI50 [9] was greater than 100 µM and the TGI [9] was greater than 100 µM. For the same compound, the GI50 [10] was greater than 100 µM, the TGI [10] was greater than 100 µM and the GI50 [11] was greater than 100 µM. It also gave a TGI [11] greater than 100 µM, a GI50 [12] greater than 100 µM and a TGI [12] greater than 100 µM. The GI50 [13] was greater than 100 µM, the TGI [13] was greater than 100 µM and the GI50 [14] was greater than 100 µM. It also gave a TGI [14] greater than 100 µM, a GI50 [15] greater than 100 µM and a TGI [15] greater than 100 µM. The GI50 [16] was greater than 100 µM, the TGI [16] was greater than 100 µM and the GI50 [17] was greater than 36.8 µM. The TGI [17] was greater than 100 µM, the GI50 [18] was greater than 100 µM and the TGI [18] was greater than 100 µM. The GI50 [19] was greater than 100 µM, the TGI [19] was greater than 100 µM and the GI50 [20] was greater than 100 µM. For the same compound, the TGI [20] was greater than 100 µM, the GI50 [21] was 4.44 µM and the TGI [21] was greater than 100 µM. It also gave a GI50 [22] greater than 100 µM, a TGI [22] greater than 100 µM and a GI50 [23] greater than 100 µM. For the same compound, the TGI [23] was greater than 100 µM, the GI50 [24] was greater than 100 µM and the TGI [24] was greater than 100 µM. The GI50 [25] was greater than 100 µM, the TGI [25] was greater than 100 µM and the GI50 [26] was greater than 100 µM. For the same compound, the TGI [26] was greater than 100 µM, the GI50 [27] was greater than 100 µM and the TGI [27] was greater than 100 µM. For the same compound, the GI50 [28] was greater than 100 µM, the TGI [28] was greater than 100 µM and the GI50 [29] was 61.6 µM. For the same compound, the TGI [29] was greater than 100 µM, the GI50 [30] was greater than 100 µM and the TGI [30] was greater than 100 µM. The GI50 [31] was greater than 100 µM, the TGI [31] was greater than 100 µM and the GI50 [32] was greater than 100 µM. The TGI [32] was greater than 100 µM, the GI50 [33] was 0.658 µM and the TGI [33] was greater than 100 µM. For the same compound, the GI50 [34] was greater than 100 µM, the TGI [34] was greater than 100 µM and the GI50 [35] was greater than 100 µM. The TGI [35] was greater than 100 µM, the GI50 [36] was greater than 100 µM and the TGI [36] was greater than 100 µM. For the same compound, the GI50 [37] was 1.9 µM, the TGI [37] was greater than 100 µM and the GI50 [38] was greater than 100 µM. It also gave a TGI [38] greater than 100 µM, a GI50 [39] greater than 100 µM and a TGI [39] greater than 100 µM. It also gave a GI50 [40] greater than 100 µM, a TGI [40] greater than 100 µM and a GI50 [41] of 0.183 µM. The TGI [41] was greater than 100 µM, the GI50 [42] was greater than 100 µM and the TGI [42] was greater than 100 µM. It also gave a GI50 [43] of less than 0.0138 µM, a TGI [43] of 0.0854 µM and a GI50 [44] greater than 100 µM. The TGI [44] was greater than 100 µM, the GI50 [45] was greater than 100 µM and the TGI [45] was greater than 100 µM. For the same compound, the GI50 [46] was greater than 100 µM, the TGI [46] was greater than 100 µM and the GI50 [47] was greater than 100 µM. The TGI [47] was greater than 100 µM.
